Experimental data: patent US11472843B2, “Malacidins and methods of use” (The Rockefeller University, priority 2017, dated 2022)

Columns and labels:
[1] = tested on: Streptococcus mutans UA159; assay: MIC assay, S. mutans; assay type: cell-based
Protocol: MIC assays were performed in duplicate in 96-well microtiter plates on the basis of the protocol recommended by the Clinical and Laboratory Standards Institute (Cockerill, 2012, Clinical and Laboratory Standards Institute). All presented data are the average of at least three independent assays. Stock solutions of malacidin or daptomycin (2 mg ml^−1 in H2O) were added to the first well in a row and serially diluted (twofold per transfer) across the microtiter plate. CaCl2 was supplemented to media at a final concentration of 15 mM and fetal bovine serum (ATCC) was added to media (1:10) to test the effect of serum. Overnight cultures of bacteria were diluted 5,000-fold, and 50 μl was used as an inoculum in each well. MIC values were determined by visual inspection after 18 h incubation (30° C., static growth). For the enhanced calcium titration experiments, standard MIC assays were performed with methicillin-resistant Staphylococcus aureus (MRSA) PFGE strain type USA300 in media supplemented with CaCl2 at: 25.0, 18.8, 14.1, 7.03, 3.52, 2.50, 1.76, 0.880, 0.440, 0.250 and 0 mM. To assess the effects of monovalent and divalent cations on malacidin activity, standard MIC assays were performed with MRSA USA300 in media supplemented with 15 mM CaCl2, MgCl2, MnCl2, ZnCl2, SrCl2, NaCl and KCl. […]

[2] = tested on: Bacillus subtilis 168 IAI; assay: MIC assay, B. subtilis; assay type: cell-based
Protocol: MIC assays were performed in duplicate in 96-well microtiter plates on the basis of the protocol recommended by the Clinical and Laboratory Standards Institute (Cockerill, 2012, Clinical and Laboratory Standards Institute). All presented data are the average of at least three independent assays. Stock solutions of malacidin or daptomycin (2 mg ml^−1 in H2O) were added to the first well in a row and serially diluted (twofold per transfer) across the microtiter plate. CaCl2 was supplemented to media at a final concentration of 15 mM and fetal bovine serum (ATCC) was added to media (1:10) to test the effect of serum. Overnight cultures of bacteria were diluted 5,000-fold, and 50 μl was used as an inoculum in each well. MIC values were determined by visual inspection after 18 h incubation (30° C., static growth). For the enhanced calcium titration experiments, standard MIC assays were performed with methicillin-resistant Staphylococcus aureus (MRSA) PFGE strain type USA300 in media supplemented with CaCl2 at: 25.0, 18.8, 14.1, 7.03, 3.52, 2.50, 1.76, 0.880, 0.440, 0.250 and 0 mM. To assess the effects of monovalent and divalent cations on malacidin activity, standard MIC assays were performed with MRSA USA300 in media supplemented with 15 mM CaCl2, MgCl2, MnCl2, ZnCl2, SrCl2, NaCl and KCl. To evaluate the effects of pulmonary surfactants on activity against a community-acquired pneumonia-causing pathogen, standard MIC assays were performed with Streptococcus pneumoniae TCH8431 in media supplemented with both 15 mM […] and Survanta (beractant) at a final concentration of 5, 1, 0.5, 0.25 or 0% (volume/volume (v/v) percent).

[3] = tested on: MRSA USA300; assay: Selection for malacidin-resistant mutants; assay type: cell-based, Staphylococcus aureus; conditions: 20 days of exposure to 0.5×MIC, 15 mM calcium
Protocol: To select for resistant mutants, a single MRSA USA300 colony from a freshly struck plate was inoculated into LB media and grown overnight at 37° C. The saturated overnight culture was diluted 100-fold, supplemented with a sub-lethal dose (0.5×MIC) of malacidin A, vancomycin, daptomycin or rifamycin and 15 mM calcium. Two-hundred-microlitre aliquots were then distributed into microtiter plate wells. The next day, 3 μl of culture from each well was used to inoculate 200 μl of calcium-supplemented media (15 mM calcium) with fresh antibiotic at 0.5× and 4×MIC. This process was repeated for 20 days. […] This was repeated over the course of the experiment to assess fold change in MIC at day 0 to day 20.

[4] = tested on: MRSA USA300; assay: Membrane depolarization assay (DiBAC4); assay type: cell-based, Staphylococcus aureus; conditions: S. aureus cells pretreated with DiBAC4; 20 μg ml^−1
Protocol: The effects of malacidin on membrane integrity was assessed using SYTOX green. In brief, single colonies of MRSA USA300 were grown in LB media with and without 15 mM CaCl2 to an OD600 nm of 0.35. Nine hundred microlitres of cells were mixed with 100 μL of 17 μM SYTOX green dye (Thermo Fisher). The resulting mixture was incubated for 5 min at 22° C., and then distributed to a microtiter plate at 50 μl per well. An initial reading of fluorescence pre-antibiotic addition was measured at excitation and emission wavelengths of 488 nm and 523 nm, respectively. Fifty microlitres of antibiotics was added to respective wells at a final concentration of 20 μg ml^−1. Measurements were immediately collected for 10 min. To assess the effects of malacidin on membrane depolarization, similar assays were set up using the membrane potential probe, DiBAC4 (bis-(1,3-dibutylbarbituric acid)trimethine oxonol). Single colonies of MRSA USA300 were grown in LB media with and without 15 mM CaCl2 to an OD600 nm of 0.35. Nine hundred microlitres of cells were mixed with 100 μl of 20 μg ml DiBAC4dye (Thermo Fisher). The resulting mixture was incubated for 5 min at 22° C., and then distributed to a microtiter plate at 50 μl per well. An initial reading of fluorescence pre-antibiotic addition was measured at excitation and emission wavelengths of 492 nm and 515 nm, respectively. […]

[5] = tested on: UDP-MurNAc-pentapeptide in MRSA USA300; assay: UDP-MurNAc-pentapeptide accumulation assay; assay type: cell-based, Staphylococcus aureus; conditions: 10 μg ml^−1, 60 min, UPLC-MS
Protocol: The intracellular accumulation of the cell wall precursor UDP-MurNAc-pentapeptide after treatment of MRSA USA300 with malacidin was assessed as previously described (Schneider et al., […], Antimicrob Agents Ch 53:1610-18). In brief, single colonies of MRSA USA300 were grown in LB media with and without 15 mM CaCl2 to an OD600 nm of 0.6. […] of cells and medium were incubated with a final concentration of 130 μg ml^−1 chloramphenicol for 15 min at 37° C. Antibiotics to be assayed were added at 10 μg ml^−1 and incubated for 60 min at 37° C. Vancomycin, known to form a complex with lipid II, was used as a positive control. Cells were collected by centrifugation, and resuspended in 30 μl dH2O and incubated in boiling water for 15 min. The cell extract was then centrifuged at 14,000 g. Supernatant was analysed for UDP-linked cell wall precursors by a UPLC-MS system. Experiments were performed with biological replicates.

[6] = Complex formation with cell wall precursors (TLC mobility shift), C55-P; assay type: binding; conditions: 1 nmol precursor, 0.5 nmol antibiotic
Protocol: Binding of malacidin to C55-P and lipid II was evaluated by incubating 1 nmol of each purified precursor with 0.5 nmol of malacidin or daptomycin in 100 mM Tris-HCl, pH 7.5, 0.1% Triton X-100, 13 mM MgCl2, and with or without 25 mM CaCl2, for 60 min at 37° C. Subsequently, the mixture was extracted twice with n-BuOH/6 M pyridinium acetate buffer, pH 4.2 (3:1, v/v). The butanol fraction was evaporated and the residue was dissolved in CHCl3/methanol (1:1, v/v). The resuspension was analysed for the loss of unbound malacidin or daptomycin to a complex by TLC analysis using chloroform/methanol/water/ammonia (88:48:10:1, v/v/v/v) as the solvent and detection by 254/366 nm visualization. Experiments were performed with biological replicates.

malacidin A
MIC ([1]; S. mutans, 15 mM CaCl2): 0.1-0.2 μg m1^−1
MIC ([1]; Streptococcus mutans UA159): 0.1 to 0.2 µg/mL
MIC ([2]; B. subtilis, 15 mM CaCl2): 0.2-0.4 μg m1^−1
MIC ([2]; Bacillus subtilis 168 IAI): 0.2 to 0.4 µg/mL
Detection of resistant S. aureus after repeated exposure [3]: not detected
Loss of membrane potential (DiBAC4) [4]: no significant loss of membrane potential
Accumulation of cell wall intermediate UDP-MurNAc-pentapeptide [5]: accumulation of the cell wall intermediate UDP-MurNAc-pentapeptide
Sequestration of C55-P (TLC mobility shift) [6]: did not sequester C55-P
